{"source": "patent EP1377579B1", "about": "(Aventis Pharmaceuticals Inc., priority 2000, dated 2002)", "key": {"[1]": {"molecular_target": "cdk1/cyclin B (Homo sapiens, UniProt P06493)", "sequence (P06493 whole entry)": "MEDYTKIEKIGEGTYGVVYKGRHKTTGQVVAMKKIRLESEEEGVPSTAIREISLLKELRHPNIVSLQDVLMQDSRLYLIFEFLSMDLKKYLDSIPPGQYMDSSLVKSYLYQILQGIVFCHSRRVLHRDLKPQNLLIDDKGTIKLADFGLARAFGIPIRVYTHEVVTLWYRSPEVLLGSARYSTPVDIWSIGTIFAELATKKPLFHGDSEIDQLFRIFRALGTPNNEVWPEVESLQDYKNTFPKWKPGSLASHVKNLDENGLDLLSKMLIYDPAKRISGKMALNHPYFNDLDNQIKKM", "sequence (P14635 whole entry partner)": "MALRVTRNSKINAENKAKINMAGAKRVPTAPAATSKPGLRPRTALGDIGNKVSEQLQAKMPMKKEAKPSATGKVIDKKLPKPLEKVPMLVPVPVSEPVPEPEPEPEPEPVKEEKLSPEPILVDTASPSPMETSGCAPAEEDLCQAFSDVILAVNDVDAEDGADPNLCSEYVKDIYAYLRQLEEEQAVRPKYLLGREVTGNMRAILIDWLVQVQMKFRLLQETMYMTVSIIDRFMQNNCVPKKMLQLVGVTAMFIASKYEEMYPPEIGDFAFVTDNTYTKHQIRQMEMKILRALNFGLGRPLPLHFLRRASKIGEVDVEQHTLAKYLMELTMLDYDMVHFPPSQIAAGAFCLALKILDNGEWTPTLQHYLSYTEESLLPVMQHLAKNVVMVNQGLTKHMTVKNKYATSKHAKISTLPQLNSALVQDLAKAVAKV", "assay": "Cyclin-dependent kinase assay, cdk1/cyclin B", "conditions": "CDK1 IC50, nM, Histone H1, 10 µM ATP"}, "[2]": {"molecular_target": "cdk4/cyclin D1 (Homo sapiens, UniProt P11802)", "sequence (P11802 whole entry)": "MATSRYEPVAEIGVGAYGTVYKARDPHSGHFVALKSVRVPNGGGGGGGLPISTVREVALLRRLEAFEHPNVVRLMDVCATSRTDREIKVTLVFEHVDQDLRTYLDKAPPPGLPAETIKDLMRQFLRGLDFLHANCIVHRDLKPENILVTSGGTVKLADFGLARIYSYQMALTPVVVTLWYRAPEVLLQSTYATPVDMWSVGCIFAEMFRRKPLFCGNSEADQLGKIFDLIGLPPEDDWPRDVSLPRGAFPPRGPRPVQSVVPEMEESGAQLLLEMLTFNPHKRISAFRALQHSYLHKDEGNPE", "sequence (P24385 whole entry partner)": "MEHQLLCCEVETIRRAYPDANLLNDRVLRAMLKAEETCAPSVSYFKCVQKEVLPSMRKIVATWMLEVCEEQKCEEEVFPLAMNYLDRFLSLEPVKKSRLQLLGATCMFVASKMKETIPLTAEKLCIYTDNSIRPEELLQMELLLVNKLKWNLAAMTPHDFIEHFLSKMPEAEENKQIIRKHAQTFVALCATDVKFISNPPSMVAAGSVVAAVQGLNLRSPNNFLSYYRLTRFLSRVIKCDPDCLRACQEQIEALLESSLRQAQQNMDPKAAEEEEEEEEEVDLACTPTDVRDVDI", "assay": "Cyclin-dependent kinase assay, cdk4/cyclin D1", "format": "biochemical", "conditions": "cyclin D1/cdk4; GST-pRb substrate, 10 µM ATP"}, "[3]": {"tested_on": "MDA-MB-435", "assay": "In vitro proliferation assay (MTT), MDA-MB-435", "format": "cell-based, human", "conditions": "Homo sapiens, MDA-MB-435, MTT assay; value (SD, n) where given; read-out: MB-435 Breast (IC50 µM)", "how_it_was_run": "(§1)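 Cells plated at 1000 to 2500 cells/well, allowed to attach overnight, then exposed to compounds for 3 days. Viable cells estimated by MTT dye, solubilized in DMSO, absorbance at 570 nm; IC50 taken from raw data.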"}, "[4]": {"molecular_target": "cdk2/cyclin E (Homo sapiens, UniProt P24941)", "assay": "Cyclin-dependent kinase assay, cdk2/cyclin E", "conditions": "CDK2 IC50, nM, GST-pRb substrate, 10 µM ATP"}, "[5]": {"tested_on": "PC-3", "assay": "In vitro proliferation assay (MTT), PC-3", "format": "cell-based, human", "conditions": "Homo sapiens, PC-3, MTT assay; value (SD, n) where given; read-out: PC-3 Prostate (IC50 µM)", "how_it_was_run": "as §1"}}, "note": "Counter-ions that a name gives are not always drawn.", "data": [{"smiles": "CC(C)CC(=O)N1CCC(Nc2nc(N[C@H]3CC[C@H](N)CC3)nc3c2ncn3C2CCCC2)CC1", "note": "[compound 60, trans-1-{4-[2-(4-Amino-cyclohexylamino)-9-cyclopentyl-9H-purin-6-ylamino]-piperidin-1-yl}-3-methyl-butan-1-one dihydrochloride]", "values": [{"measurement": "IC50", "setting": "[1]", "value": 83, "unit": "nM"}, {"measurement": "IC50", "setting": "[2]", "value": 91, "unit": "nM"}, {"measurement": "IC50", "setting": "[3]", "value": 0.69, "unit": "µM"}, {"measurement": "IC50", "setting": "[4]", "value": 37, "unit": "nM"}, {"measurement": "IC50", "setting": "[5]", "value": 0.65, "unit": "µM"}]}, {"smiles": "N[C@H]1CC[C@H](Nc2nc(NC3CCN(C(=O)Cc4cccs4)CC3)c3ncn(C4CCCC4)c3n2)CC1", "note": "[compound 61, trans-1-{4-[2-(4-Amino-cyclohexylamino)-9-cyclopentyl-9H-purin-6-ylamino]-piperidin-1-yl}-2-thiophen-2-yl-ethanone dihydrochloride]", "values": [{"measurement": "IC50", "setting": "[1]", "value": 40, "unit": "nM"}, {"measurement": "IC50", "setting": "[2]", "value": 750, "unit": "nM"}, {"measurement": "IC50", "setting": "[3]", "value": 0.61, "unit": "µM"}, {"measurement": "IC50", "setting": "[4]", "value": 38, "unit": "nM"}, {"measurement": "IC50", "setting": "[5]", "value": 0.58, "unit": "µM"}]}, {"smiles": "N[C@H]1CC[C@H](Nc2nc(NC3CCN(C(=O)C4CC4)CC3)c3ncn(C4CCCC4)c3n2)CC1", "note": "[compound 64, trans-1-{4-[2-(4-Amino-cyclohexylamino)-9-cyclopentyl-9H-purin-6-ylamino]-piperidin-1-yl}-1-cyclopropyl-methanone dihydrochloride]", "values": [{"measurement": "IC50", "setting": "[1]", "value": 65, "unit": "nM"}, {"measurement": "IC50", "setting": "[2]", "value": 593, "unit": "nM"}, {"measurement": "IC50", "setting": "[3]", "value": 1.13, "unit": "µM"}, {"measurement": "IC50", "setting": "[4]", "value": 62, "unit": "nM"}, {"measurement": "IC50", "setting": "[5]", "value": 1.03, "unit": "µM"}]}, {"smiles": "COCC(=O)N1CCC(Nc2nc(N[C@H]3CC[C@H](N)CC3)nc3c2ncn3C2CCCC2)CC1", "note": "[compound 65, trans-1-{4-[2-(4-Amino-cyclohexylamino)-9-cyclopentyl-9H-purin-6-ylamino]-piperidin-1-yl}-2-methoxy-ethanone dihydrochloride]", "values": [{"measurement": "IC50", "setting": "[1]", "value": 72, "unit": "nM"}, {"measurement": "IC50", "setting": "[2]", "value": 764, "unit": "nM"}, {"measurement": "IC50", "setting": "[3]", "value": 3.09, "unit": "µM"}, {"measurement": "IC50", "setting": "[4]", "value": 50, "unit": "nM"}, {"measurement": "IC50", "setting": "[5]", "value": 3.29, "unit": "µM"}]}, {"smiles": "N[C@H]1CC[C@H](Nc2nc(NC3CCN(C(=O)c4cccc5c4-c4ccccc4C5=O)CC3)c3ncn(C4CCCC4)c3n2)CC1", "note": "[compound 66, trans-4-(1-{4-[2-(4-Amino-cyclohexylamino)-9-cyclopentyl-9H-purin-6-ylamino]-piperidin-1-yl}-methanoyl)-fluoren-9-one]", "values": [{"measurement": "IC50", "setting": "[1]", "value": 234, "unit": "nM"}, {"measurement": "IC50", "setting": "[2]", "value": 1720, "unit": "nM"}, {"measurement": "IC50", "setting": "[3]", "value": 1.66, "unit": "µM"}, {"measurement": "IC50", "setting": "[4]", "value": 325, "unit": "nM"}, {"measurement": "IC50", "setting": "[5]", "value": 1.93, "unit": "µM"}]}, {"smiles": "N[C@H]1CC[C@H](Nc2nc(NC3CCN(C(=O)c4cccnc4)CC3)c3ncn(C4CCCC4)c3n2)CC1", "note": "[compound 67, trans-1-{4-[2-(4-Amino-cyclohexylamino)-9-cyclopentyl-9H-purin-6-ylamino]-piperidin-1-yl}-1-pyridin-3-yl-methanone]", "values": [{"measurement": "IC50", "setting": "[1]", "value": 824, "unit": "nM"}, {"measurement": "IC50", "setting": "[2]", "value": 3150, "unit": "nM"}, {"measurement": "IC50", "setting": "[3]", "value": 50, "unit": "µM"}, {"measurement": "IC50", "setting": "[4]", "value": 441, "unit": "nM"}, {"measurement": "IC50", "setting": "[5]", "value": 38, "unit": "µM"}]}, {"smiles": "N[C@H]1CC[C@H](Nc2nc(NC3CCN(C(=O)c4ccncc4)CC3)c3ncn(C4CCCC4)c3n2)CC1", "note": "[compound 68, trans-1-{4-[2-(4-Amino-cyclohexylamino)-9-cyclopentyl-9H-purin-6-ylamino]-piperidin-1-yl}-1-pyridin-4-yl-methanone]", "values": [{"measurement": "IC50", "setting": "[1]", "value": 136, "unit": "nM"}, {"measurement": "IC50", "setting": "[2]", "value": 1440, "unit": "nM"}, {"measurement": "IC50", "setting": "[3]", "value": 21, "unit": "µM"}, {"measurement": "IC50", "setting": "[4]", "value": 84, "unit": "nM"}, {"measurement": "IC50", "setting": "[5]", "value": 16, "unit": "µM"}]}, {"smiles": "N[C@H]1CC[C@H](Nc2nc(NC3CCN(C(=O)c4cc(C(F)(F)F)ccc4F)CC3)c3ncn(C4CCCC4)c3n2)CC1", "note": "[compound 69, trans-1-{4-[2-(4-Amino-cyclohexylamino)-9-cyclopentyl-9H-purin-6-ylamino]-piperidin-1-yl}-1-(2-fluoro-5-trifluoromethyl-phenyl)-methanone]", "values": [{"measurement": "IC50", "setting": "[1]", "value": 48, "unit": "nM"}, {"measurement": "IC50", "setting": "[2]", "value": 852, "unit": "nM"}, {"measurement": "IC50", "setting": "[3]", "value": 0.48, "unit": "µM"}, {"measurement": "IC50", "setting": "[4]", "value": 84, "unit": "nM"}, {"measurement": "IC50", "setting": "[5]", "value": 0.35, "unit": "µM"}]}, {"smiles": "Cc1ccccc1C(=O)N1CCC(Nc2nc(N[C@H]3CC[C@H](N)CC3)nc3c2ncn3C2CCCC2)CC1", "note": "[compound 70, trans-1-{4-[2-(4-Amino-cyclohexylamino)-9-cyclopentyl-9H-purin-6-ylamino]-piperidin-1-yl}-1-(2-methyl-phenyl)-methanone]", "values": [{"measurement": "IC50", "setting": "[1]", "value": 277, "unit": "nM"}, {"measurement": "IC50", "setting": "[2]", "value": 4510, "unit": "nM"}, {"measurement": "IC50", "setting": "[3]", "value": 4.6, "unit": "µM"}, {"measurement": "IC50", "setting": "[4]", "value": 430, "unit": "nM"}, {"measurement": "IC50", "setting": "[5]", "value": 4.4, "unit": "µM"}]}]}
